Consider 9 compounds from patent US7115596B2, “Thiazole compounds as integrin receptor antagonists derivatives” (Pharmacia Corporation, priority 2002, dated 2006).

Counter-ions that a name gives are not always drawn.

The first series in a line: Plasma level upon oral dosing (AUC-PO) in rat. Type of series: in vivo. The conditions noted are these: per dose, Table 1.
For `O=C(O)C[C@H](Cc1csc(CCCCNc2cc(N3CCOCC3)ccn2)n1)c1ccc2c(c1)OCO2`, the “Rat AUC/Dose” value is listed as 0.0634 ug-/m/L/mg/Kg.

On to `O=C(O)CC(Cc1csc(CCCc2ccc3c(n2)NCCC3)n1)c1ccc2c(c1)OCO2` (stereo not drawn) [drawing 98], for which the “Rat AUC/Dose” value stood at 6.81 ug-/m/L/mg/Kg.

The series is the same for the next values; noted with them: per dose, second table.
`COc1cc(OC)cc(C(CC(=O)O)Cc2csc(CCCc3ccc4c(n3)NCCC4)n2)c1` (stereo not drawn) [Example 5, 3-(3,5-dimethoxyphenyl)-4-{2-[3-(5,6,7,8-tetrahydro-1,8-naphthyridin-2-yl)propyl]-1,3-thiazol-4-yl}butanoic acid hydrochloride]: the “Rat PK-AUC/dose” value came to 2.2 ug-h/m/L/mg/Kg.

For `Cc1nc2cc(C(CC(=O)O)Cc3csc(CCCc4ccc5c(n4)NCCC5)n3)ccc2s1` (stereo not drawn) [Example 9, 3-(2-methyl-1,3-benzothiazol-5-yl)-4-{2-[3-(5,6,7,8-tetrahydro-1,8-naphthyridin-2-yl)propyl]-1,3-thiazol-4-yl}butanoic acid hydrochloride], the “Rat PK-AUC/dose” value stood at 2.5 ug-h/m/L/mg/Kg.

Turning to `O=C(O)CC(Cc1csc(CCCc2ccc3c(n2)NCCC3)n1)c1ccc2c(c1)OCO2` (stereo not drawn) [Example 6, 3-(1,3-benzodioxol-5-yl)-4-{2-[3-(5,6,7,8-tetrahydro-1,8-naphthyridin-2-yl)propyl]-1,3-thiazol-4-yl}butanoic acid hydrochloride], the “Rat PK-AUC/dose” value came out at 6.8 ug-h/m/L/mg/Kg.

Turning to `COc1ccc(C(CC(=O)O)Cc2csc(CCCc3ccc4c(n3)NCCC4)n2)cn1` (stereo not drawn) [Example 13, 3-(6-Methoxypyridin-3-yl)-4-{2-[3-(5,6,7,8-tetrahydro-1,8-naphthyridin-2-yl)propyl]-1,3-thiazol-4-yl}butanoic acid hydrochloride], the “Rat PK-AUC/dose” value is listed as 1.6 ug-h/m/L/mg/Kg.

Turning to `O=C(O)C[C@H](Cc1csc(CCCc2ccc3c(n2)NCCC3)n1)c1ccc2c(c1)OCO2` [Example 7, (3S)-3-(1,3-benzodioxol-5-yl)-4-{2-[3-(5,6,7,8-tetrahydro-1,8-naphthyridin-2-yl)propyl]-1,3-thiazol-4-yl}butanoic acid hydrochloride], the “Rat PK-AUC/dose” value is listed as 8.7 ug-h/m/L/mg/Kg.

Take `O=C(O)CC(Cc1csc(CCCc2ccc3c(n2)NCCC3)n1)c1cnc(C2CC2)s1` (stereo not drawn) [Example 16, 3-(2-Cyclopropyl-1,3-thiazol-5-yl)-4-{2-[3-(5,6,7,8-tetrahydro-1,8-naphthyridin-2-yl)propyl]-1,3-thiazol-4-yl}butanoic acid hydrochloride]: the “Rat PK-AUC/dose” value came out at 1.7 ug-h/m/L/mg/Kg.

Regarding `COc1ccc(C(CC(=O)O)Cc2csc(CCCc3ccc4c(n3)NCCC4)n2)cc1F` (stereo not drawn) [Example 2, 3-(3-fluoro-4-methoxyphenyl)-4-{2-[3-(5,6,7,8-tetrahydro-1,8-naphthyridin-2-yl)propyl]-1,3-thiazol-4-yl}butanoic acid hydrochloride], the “Rat PK-AUC/dose” value came out at 1.8 ug-h/m/L/mg/Kg.
